pIC50: −log10 of the molar value. Read-outs that look alike come from different tables or passages of the source.
Biological target: human GPIIb/IIIa receptor (Homo sapiens (Human), UniProt P05106+P08514)
Assay: Affinity assay: displacement of tritiated reference compound from immobilized purified GPIIb/IIIa
Assay type: binding
Procedure: Affinity assay: In the first step human GPIIb/IIIa purified from human platelets was immobilized on a 96-well solid plate. After 48 hours the plates were washed and the unspecific binding sites were blocked with Roti®-Block. 2. In the next step, the plates were simultaneously incubated with a tritium labeled known GPIIb/IIIa binder (^3H) mixed with increasing concentrations of the novel small molecule compounds (inhibitor, ^19F). The higher the affinity of the inhibitor, the lower the bound fraction of the tritiated known GPIIb/IIIa binder (^3H) was. The fraction of tritiated compound (^3H), which is not displaced by inhibitor, was measured in a microplate scintillation counter.
Purified human glycoprotein IIb/IIIa (20 mM Tris-HCl, 0.1 M NaCl, 0.1% Triton X-100, 1 mM CaCl2, 0.05% NaN3, 50% Glycerol, pH 7.4) was purchased from Enzyme Research Laboratories Inc. (South Bend, Ind.). The GPIIb/IIIa receptor was diluted in phosphate-buffered saline (Dulbecco's Phosphate Buffered Saline (D-PBS(+)) with calcium and magnesium, GIBCO®, Invitrogen) with 0.01% bovine serum albumin (albumin from bovine serum—lyophilized powder, ≧96%, Sigma).
The GPIIb/IIIa receptor was immobilized 48 hours at least (100 μL per well, 48 to maximum 96 hours) on a 96-well solid plate (Immuno Plate MaxiSorp™, Nunc, Roskilde, Denmark) at 277 K to 280 K and at a concentration of 0.1 μg per well to 1 μg per well. As negative control one row of the plate (n=8) was incubated just with 2% bovine serum albumin (200 μper well, albumin from bovine serum—lyophilized powder, […], Sigma, diluted in D-PBS(+)). After washing three times with the wash buffer (230 μL per well, Dulbecco's Phosphate Buffered Saline (D-PBS (−)) contains no calcium or magnesium, GIBCO®, Invitrogen) residual exposed plastic and unspecific binding sites were blocked by incubating the plate with a special blocking solution (200 μL per well, Roti®-Block, Carl Roth GmbH Co KG, Karlsruhe) containing 2% bovine serum albumin (Albumin from bovine serum—lyophilized powder, ≧96%, Sigma) 1 hour at room temperature.
After washing three times with the wash buffer 50 μL of tritiated reference compound (60 nM, ^3H-labeled compound) and 50 μL of novel compound (inhibitor, ^19F) were simultaneously added to each well and incubated for 1 hour at room temperature. Several concentrations of each novel inhibitor (0.1, 1, 2, 5, 10, 20 50, 100, 200, 500, 1000, 2000, 5000, 10000 and 20000 nM) were investigated. At each concentration of inhibitor a fourfold determination was performed.
The maximum value of tritiated reference compound was determined without addition of inhibitor (n=8). To exclude unspecific binding of ^3H-reference compound wells without glycoprotein receptors were used as negative controls (n=12, identically treated just without GP IIb/IIIa receptors).
After one hour the plate was washed three times with phosphate-buffered saline (200 μL per well, Dulbecco's Phosphate Buffered Saline (D-PBS(+)), GIBCO®, Invitrogen). Following 140 μL of liquid scintillation cocktail (MicroScint™ 40 aqueous, Perkin Elmer) was added to each well. After 15 min at room temperature the plates were measured at the microplate scintillation counter (TopCount NXT v2.13, Perkin Elmer, Packard Instrument Company).
In the first step human glycoprotein IIb/IIIa, which is purified from human platelets, was immobilized on a 96-well solid plate. After 48 hours at least the plates were washed and the unspecific binding sites were blocked with Roti®-Block. In the next step, the plates were simultaneously incubated with a tritium labeled reference compound and the novel small molecule compound (inhibitor). The higher the affinity of the inhibitor, the smaller is the bound fraction of reference compound. The fraction of tritiated reference compound, which is not displaced by inhibitor, was measured at a microplate scintillation counter.

[1] = 19F compounds vs 60 nM 3H-labeled reference compound, 1 hour at room temperature, read-out: IC50 human
[2] = values repeated beside the 18F-compound, read-out: IC50 human (corresponding 19F-compound, Table 2)

human GPIIb/IIIa receptor, sequence (P08514 32-887): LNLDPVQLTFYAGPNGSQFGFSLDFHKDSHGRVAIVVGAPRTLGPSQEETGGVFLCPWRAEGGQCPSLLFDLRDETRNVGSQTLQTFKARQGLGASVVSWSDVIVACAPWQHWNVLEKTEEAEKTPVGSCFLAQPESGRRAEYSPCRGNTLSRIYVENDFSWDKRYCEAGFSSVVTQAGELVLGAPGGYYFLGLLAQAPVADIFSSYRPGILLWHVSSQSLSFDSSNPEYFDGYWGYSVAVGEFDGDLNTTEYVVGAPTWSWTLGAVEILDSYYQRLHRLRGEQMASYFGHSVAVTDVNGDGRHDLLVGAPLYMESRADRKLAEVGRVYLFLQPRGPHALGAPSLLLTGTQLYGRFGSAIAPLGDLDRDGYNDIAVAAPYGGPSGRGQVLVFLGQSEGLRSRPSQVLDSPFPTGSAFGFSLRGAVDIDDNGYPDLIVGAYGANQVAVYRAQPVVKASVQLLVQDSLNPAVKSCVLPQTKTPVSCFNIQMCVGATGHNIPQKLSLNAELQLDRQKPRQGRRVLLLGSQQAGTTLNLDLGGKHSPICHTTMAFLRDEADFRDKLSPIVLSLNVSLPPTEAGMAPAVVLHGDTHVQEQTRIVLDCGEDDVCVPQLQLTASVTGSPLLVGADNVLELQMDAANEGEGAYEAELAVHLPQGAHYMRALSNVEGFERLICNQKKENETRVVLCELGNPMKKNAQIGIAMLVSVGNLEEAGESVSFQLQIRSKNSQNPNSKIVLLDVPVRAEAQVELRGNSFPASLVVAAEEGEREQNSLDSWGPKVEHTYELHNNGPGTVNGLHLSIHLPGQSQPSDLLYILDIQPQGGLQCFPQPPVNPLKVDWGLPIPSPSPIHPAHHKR
human GPIIb/IIIa receptor, sequence (P08514 891-1039 partner): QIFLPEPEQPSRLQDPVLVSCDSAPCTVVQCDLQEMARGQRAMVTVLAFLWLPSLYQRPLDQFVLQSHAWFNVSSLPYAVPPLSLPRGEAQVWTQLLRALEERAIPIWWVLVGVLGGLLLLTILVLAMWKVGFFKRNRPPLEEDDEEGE
human GPIIb/IIIa receptor, sequence (P05106 27-788): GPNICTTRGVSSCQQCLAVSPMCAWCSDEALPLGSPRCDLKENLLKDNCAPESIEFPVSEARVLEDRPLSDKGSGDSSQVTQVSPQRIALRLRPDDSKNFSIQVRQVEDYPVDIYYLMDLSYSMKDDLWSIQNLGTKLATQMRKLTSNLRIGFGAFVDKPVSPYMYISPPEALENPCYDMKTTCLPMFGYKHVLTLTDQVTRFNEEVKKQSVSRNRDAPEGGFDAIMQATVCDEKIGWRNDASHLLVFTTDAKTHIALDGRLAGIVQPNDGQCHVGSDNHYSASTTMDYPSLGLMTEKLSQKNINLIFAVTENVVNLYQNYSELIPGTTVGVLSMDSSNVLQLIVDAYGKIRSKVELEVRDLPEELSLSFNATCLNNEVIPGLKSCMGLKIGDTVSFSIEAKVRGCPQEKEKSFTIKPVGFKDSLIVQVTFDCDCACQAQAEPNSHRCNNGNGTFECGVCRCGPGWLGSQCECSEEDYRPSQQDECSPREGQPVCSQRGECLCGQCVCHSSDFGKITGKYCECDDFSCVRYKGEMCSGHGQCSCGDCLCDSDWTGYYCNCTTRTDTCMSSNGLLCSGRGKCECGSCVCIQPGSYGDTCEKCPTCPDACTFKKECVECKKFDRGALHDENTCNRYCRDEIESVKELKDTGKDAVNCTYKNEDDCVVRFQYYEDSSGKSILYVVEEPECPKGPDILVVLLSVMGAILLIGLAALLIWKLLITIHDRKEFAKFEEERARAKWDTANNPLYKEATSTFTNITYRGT

Compound | pIC50 [1] | pIC50 [2]
N#Cc1ccc([C@H](CC(=O)O)NC(=O)[C@@H]2CCCN(C(=O)CCC3CCNCC3)C2)cc1F [Example 14, (3S)-3-(4-Cyano-3-fluorophenyl)-3-[({(3R)-1-[3-(piperidin-4-yl)propanoyl]piperidin-3-yl}carbonyl)amino]propanoic acid] | 7.82 | –
O=C(O)C[C@H](NC(=O)[C@@H]1CCCN(C(=O)CCC2CCNCC2)C1)c1cncc(C=Cc2cccc(OCCF)c2)c1 (mixture of isomers) [Example 20, (E/Z)(3S)-3-(5-{2-[3-(2-Fluoroethoxy)phenyl]ethenyl}pyridin-3-yl)-3-[({(3R)-1-[3-(piperidin-4-yl)propanoyl]piperidin-3-yl}carbonyl)amino]propanoic acid] | 8.15 | –
N#Cc1cc(COc2cncc([C@@H](CC(=O)O)NC(=O)[C@H]3CCCN(C(=O)CCC4CCNCC4)C3)c2)ccc1F (stereo in doubt) [Example 12, (3R)-3-{5-[(3-Cyano-4-fluorobenzyl)oxy]pyridin-3-yl}-3-[({(3S)-1-[3-(piperidin-4-yl)propanoyl]piperidin-3-yl}carbonyl)amino]propanoic acid] | 8.10 | –
O=C(O)C[C@H](NC(=O)[C@@H]1CCCN(C(=O)CCC2CCNCC2)C1)c1cc(F)cc(-c2ccc(OCCF)cc2)c1 [Example 17, (3S)-3-[5-Fluoro-4′-(2-fluoroethoxy)biphenyl-3-yl]-3-[({(3R)-1-[3-(piperidin-4-yl)propanoyl]piperidin-3-yl}carbonyl)amino]propanoic acid] | 7.46 | –
N#Cc1ccc(COc2cncc([C@H](CC(=O)O)NC(=O)[C@@H]3CCCN(C(=O)CCC4CCNCC4)C3)c2)cc1F [Example 13, (3S)-3-{5-[(4-Cyano-3-fluorobenzyl)oxy]pyridin-3-yl}-3-[({(3R)-1-[3-(piperidin-4-yl)propanoyl]piperidin-3-yl}carbonyl)amino]propanoic acid] | 8.15 | –
O=C(O)C[C@H](NC(=O)[C@@H]1CCCN(C(=O)CCC2CCNCC2)C1)c1cncc(-c2ccc(F)c([N+](=O)[O-])c2)c1 [Example 11, (3S)-3-[5-(4-Fluoro-3-nitrophenyl)pyridin-3-yl]-3-[({(3R)-1-[3-(piperidin-4-yl)propanoyl]piperidin-3-yl}carbonyl)amino]propanoic acid] | 7.85 | –
O=C(O)C[C@H](NC(=O)[C@@H]1CCCN(C(=O)CCC2CCNCC2)C1)c1cncc(CCc2cccc(OCCF)c2)c1 [Example 19, (3S)-3-(5-{2-[3-(2-Fluoroethoxy)phenyl]ethyl}pyridin-3-yl)-3-[({(3R)-1-[3-(piperidin-4-yl)propanoyl]piperidin-3-yl}carbonyl)amino]propanoic acid] | 8.52 | 8.52
O=C(O)C[C@H](NC(=O)[C@@H]1CCCN(C(=O)CCC2CCNCC2)C1)c1ccc(OCCF)cc1 [Example 2, (3S)-3-[4-(2-Fluoroethoxy)phenyl]-3-[({(3R)-1-[3-(piperidin-4-yl)propanoyl]piperidin-3-yl}carbonyl)amino]propanoic acid] | 7.54 | 7.54
O=C(O)C[C@H](NC(=O)[C@@H]1CCCN(C(=O)CCC2CCNCC2)C1)c1cncc(OCCOCCOCCF)c1 [Example 5, (3S)-3-(5-{2-[2-(2-Fluoroethoxy)ethoxy]ethoxy}pyridine-3-yl)-3-[({(3R)-1-[3-(piperidin-4-yl)propanoyl]piperidin-3-yl}carbonyl)amino]propanoic acid] | 7.80 | –
O=C(O)C[C@H](NC(=O)[C@@H]1CCCN(C(=O)CCC2CCNCC2)C1)c1cccc(OCCOCCOCCF)c1 [Example 4, (3S)-3-(3-{2-[2-(2-Fluoroethoxy)ethoxy]ethoxy}phenyl)-3-[({(3R)-1-[3-(piperidin-4-yl)propanoyl]piperidin-3-yl}carbonyl)amino]propanoic acid] | 7.08 | –
O=C(O)C[C@H](NC(=O)[C@@H]1CCCN(C(=O)CCC2CCNCC2)C1)c1cncc(CCc2ccc(OCCF)cc2)c1 [Example 18, (3S)-3-(5-{2-[4-(2-Fluoroethoxy)phenyl]ethyl}pyridin-3-yl)-3-[({(3R)-1-[3-(piperidin-4-yl)propanoyl]piperidin-3-yl}carbonyl)amino]propanoic acid] | 8.52 | 8.52
N#Cc1cc(-c2cncc([C@H](CC(=O)O)NC(=O)[C@@H]3CCCN(C(=O)CCC4CCNCC4)C3)c2)ccc1F [Example 9, (3S)-3-[5-(3-Cyano-4-fluorophenyl)pyridin-3-yl]-3-[({(3R)-1-[3-(piperidin-4-yl)propanoyl]piperidin-3-yl}carbonyl)amino]propanoic acid] | 7.68 | 7.68
O=C(O)C[C@H](NC(=O)[C@@H]1CCCN(C(=O)CCC2CCNCC2)C1)c1cncc(C#Cc2cccc(OCCF)c2)c1 [Example 16, (3S)-3-(5-{[3-(2-Fluoroethoxy)phenyl]ethynyl}pyridin-3-yl)-3-[({(3R)-1-[3-(piperidin-4-yl)propanoyl]piperidin-3-yl}carbonyl)amino]propanoic acid] | 8.22 | –
O=C(O)C[C@H](NC(=O)[C@@H]1CCCN(C(=O)CCC2CCNCC2)C1)c1cncc(-c2cccc(OCCF)c2)c1 [Example 6, (3S)-3-{5-[3-(2-Fluoroethoxy)phenyl]pyridin-3-yl}-3-[({(3R)-1-[3-(piperidin-4-yl)propanoyl]piperidin-3-yl}carbonyl)amino]propanoic acid] | 7.80 | –
O=C(O)C[C@H](NC(=O)[C@@H]1CCCN(C(=O)CCC2CCNCC2)C1)c1cncc(-c2ccccc2OCCF)c1 [Example 8, (3S)-3-{5-[2-(2-Fluoroethoxy)phenyl]pyridin-3-yl}-3-[({(3R)-1-[3-(piperidin-4-yl)propanoyl]piperidin-3-yl}carbonyl)amino]propanoic acid] | 7.85 | –
N#Cc1ccc(-c2cncc([C@H](CC(=O)O)NC(=O)[C@@H]3CCCN(C(=O)CCC4CCNCC4)C3)c2)cc1F [Example 10, (3S)-3-[5-(4-Cyano-3-fluorophenyl)pyridin-3-yl]-3-[({(3R)-1-[3-(piperidin-4-yl)propanoyl]piperidin-3-yl}carbonyl)amino]propanoic acid] | 7.82 | –
O=C(O)C[C@H](NC(=O)[C@@H]1CCCN(C(=O)CCC2CCNCC2)C1)c1cncc(C#Cc2ccc(OCCF)cc2)c1 [Example 15, (3S)-3-(5-{[4-(2-Fluoroethoxy)phenyl]ethynyl}pyridin-3-yl)-3-[({(3R)-1-[3-(piperidin-4-yl)propanoyl]piperidin-3-yl}carbonyl)amino]propanoic acid] | 8.30 | –

Source: patent US9345793B2, “Compounds for binding to the platelet specific glycoprotein IIB/IIIA and their use for imaging of thrombi” (PIRAMAL IMAGING SA, priority 2011, dated 2016)
